How the values were obtained:
GRK5 = biological target: T1, GRK5 (Homo sapiens, UniProt P34947); experiment: Lance Kinase Activity Assay, GRK5; settings: biochemical Lance kinase activity assay; class symbols A-F; read-out: GRK5 LANCE Assay (IC-50)
T1 construct: purchased Thermo Scientific
How it was run: (§1)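 IC50s from sigmoidal dose-response over 0.0025-10 μM compound, with phosphorylated ULight substrate detected by Eu anti-phospho antibody FRET after EDTA quench.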

GRK2 = biological target: T2, GRK2 (Homo sapiens, UniProt P25098); experiment: Lance Kinase Activity Assay, GRK2; settings: biochemical Lance kinase activity assay; class symbols A-F; read-out: GRK2 LANCE Assay (IC-50)
T2 construct: purchased Thermo Scientific
T2 sequence (P25098 1-689): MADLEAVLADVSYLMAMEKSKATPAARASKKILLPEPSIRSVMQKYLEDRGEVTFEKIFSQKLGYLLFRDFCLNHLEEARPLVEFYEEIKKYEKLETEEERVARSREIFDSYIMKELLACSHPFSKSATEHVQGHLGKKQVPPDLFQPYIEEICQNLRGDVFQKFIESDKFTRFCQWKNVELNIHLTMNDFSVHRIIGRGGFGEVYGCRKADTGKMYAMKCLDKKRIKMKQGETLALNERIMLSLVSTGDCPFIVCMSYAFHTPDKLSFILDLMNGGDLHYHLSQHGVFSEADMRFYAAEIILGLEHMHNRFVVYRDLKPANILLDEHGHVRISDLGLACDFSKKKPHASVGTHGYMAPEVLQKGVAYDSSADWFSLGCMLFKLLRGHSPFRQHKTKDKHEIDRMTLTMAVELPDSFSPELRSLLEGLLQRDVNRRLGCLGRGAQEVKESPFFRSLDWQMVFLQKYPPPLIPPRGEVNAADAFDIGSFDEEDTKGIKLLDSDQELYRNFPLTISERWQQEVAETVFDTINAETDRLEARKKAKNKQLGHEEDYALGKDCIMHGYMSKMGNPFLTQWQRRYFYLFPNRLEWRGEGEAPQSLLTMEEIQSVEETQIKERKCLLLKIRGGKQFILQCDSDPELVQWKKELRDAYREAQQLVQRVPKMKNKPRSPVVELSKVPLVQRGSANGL
How it was run: as §1

T1 sequence (P34947 whole entry): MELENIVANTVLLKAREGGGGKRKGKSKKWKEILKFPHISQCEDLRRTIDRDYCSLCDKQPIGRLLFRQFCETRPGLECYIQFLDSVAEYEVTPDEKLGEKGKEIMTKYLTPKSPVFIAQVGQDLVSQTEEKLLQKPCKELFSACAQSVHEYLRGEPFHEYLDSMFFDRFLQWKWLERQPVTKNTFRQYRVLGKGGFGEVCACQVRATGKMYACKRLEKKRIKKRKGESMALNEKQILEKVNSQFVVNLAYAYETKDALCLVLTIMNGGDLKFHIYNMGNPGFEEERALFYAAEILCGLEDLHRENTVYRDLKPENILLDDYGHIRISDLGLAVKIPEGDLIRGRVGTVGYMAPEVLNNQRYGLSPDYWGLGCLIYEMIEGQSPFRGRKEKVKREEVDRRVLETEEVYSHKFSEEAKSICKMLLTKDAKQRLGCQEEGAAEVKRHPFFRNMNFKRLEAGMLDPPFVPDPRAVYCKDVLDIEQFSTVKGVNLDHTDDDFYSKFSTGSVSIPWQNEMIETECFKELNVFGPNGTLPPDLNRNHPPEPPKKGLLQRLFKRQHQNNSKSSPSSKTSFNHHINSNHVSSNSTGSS

| SMILES | IC50 (GRK5) | IC50 (GRK2) |
| --- | --- | --- |
| COc1ccc([C@@H](C)NC(=O)/C=C/c2c[nH]c3ncc(-c4cccc(S(C)(=O)=O)c4)cc23)cc1OC [Example 114, (R,E)-N-(1-(3,4-dimethoxyphenyl)ethyl)-3-(5-(3-(methylsulfonyl)phenyl)-1H-pyrrolo[2,3-b]pyridin-3-yl)acrylamide] | ≤ 0.05 µM | 1 to 10 µM |
| O=C(/C=C/c1c[nH]c2ncc(Cl)cc12)NCc1cccc(F)c1 [Example 7, (E)-3-(5-chloro-1H-pyrrolo[2,3-b]pyridin-3-yl)-N-(3-fluorobenzyl)acrylamide] | 0.1 to 0.5 µM | 1 to 10 µM |
| COc1ccc([C@@H](C)NC(=O)/C(C#N)=C/c2c[nH]c3ncc(-c4cccc(N(C)C)c4)cc23)cc1OC [Example 128, (R,E)-2-cyano-N-(1-(3,4-dimethoxyphenyl)ethyl)-3-(5-(3-(dimethylamino)phenyl)-1H-pyrrolo[2,3-b]pyridin-3-yl)acrylamide] | 0.1 to 0.5 µM | > 10 µM |
| CC[C@@H](NC(=O)/C(C#N)=C/c1c[nH]c2ncccc12)c1ccccc1 [Example 68, (R,E)-2-cyano-N-(1-phenylpropyl)-3-(1H-pyrrolo[2,3-b]pyridin-3-yl)acrylamide] | 0.1 to 0.5 µM | 0.1 to 0.5 µM |
| COc1ccc([C@@H](C)NC(=O)/C(C#N)=C/c2c[nH]c3ncc(OC4CCOC4)cc23)cc1OC (stereo partly drawn) [Example 103, (E)-2-cyano-N-((R)-1-(3,4-dimethoxyphenyl)ethyl)-3-(5-((tetrahydrofuran-3-yl)oxy)-1H-pyrrolo[2,3-b]pyridin-3-yl)acrylamide] | ≤ 0.05 µM | 1 to 10 µM |
| COc1ccc([C@@H](C)NC(=O)/C(C#N)=C/c2c[nH]c3ncc(-c4ccccc4)cc23)cc1OC [Example 116] | 0.05 to 0.1 µM | > 10 µM |
| C[C@@H](NC(=O)/C(C#N)=C/c1c[nH]c2nccc(Cl)c12)c1ccc(F)cc1 [Example 78, (R,E)-3-(4-chloro-1H-pyrrolo[2,3-b]pyridin-3-yl)-2-cyano-N-(1-(4-fluorophenyl)ethyl)acrylamide] | 0.1 to 0.5 µM | 0.5 to 1 µM |
| CC(NC(=O)/C(C#N)=C/c1c[nH]c2ncccc12)c1ccccc1-n1cccn1 (centres unmarked) [Example 38, (E)-N-(1-(2-(1H-pyrazol-1-yl)phenyl)ethyl)-2-cyano-3-(1H-pyrrolo[2,3-b]pyridin-3-yl)acrylamide] | 1 to 10 µM | 1 to 10 µM |
| COc1ccc([C@@H](CO)NC(=O)/C=C/c2c[nH]c3ncc(C)cc23)cc1OC [Example 53, (S,E)-N-(1-(3,4-dimethoxyphenyl)-2-hydroxyethyl)-3-(5-methyl-1H-pyrrolo[2,3-b]pyridin-3-yl)acrylamide] | ≤ 0.05 µM | 1 to 10 µM |
| COc1ccc([C@@H](C)NC(=O)/C=C/c2c[nH]c3ncc(-c4cccc(C#N)c4)cc23)cc1OC [Example 221, (R,E)-3-(5-(3-cyanophenyl)-1H-pyrrolo[2,3-b]pyridin-3-yl)-N-(1-(3,4-dimethoxyphenyl)ethyl)acrylamide] | ≤ 0.05 µM | > 10 µM |
| N#C/C(=C\c1c[nH]c2ncccc12)C(=O)NCc1cccc(CS(N)(=O)=O)c1 [Example 27, (E)-2-cyano-3-(1H-pyrrolo[2,3-b]pyridin-3-yl)-N-(3-(sulfamoylmethyl)benzyl)-acrylamide] | 1 to 10 µM | 1 to 10 µM |
| COc1ccc([C@@H](C)NC(=O)/C=C/c2c[nH]c3ncc(-c4c(C)nn(C)c4C)cc23)cc1OC [Example 209, (R,E)-N-(1-(3,4-dimethoxyphenyl)ethyl)-3-(5-(1,3,5-trimethyl-1H-pyrazol-4-yl)-1H-pyrrolo[2,3-b]pyridin-3-yl)acrylamide] | 0.05 to 0.1 µM | > 10 µM |
| COc1ccc([C@@H](C)NC(=O)/C(C#N)=C/c2c[nH]c3ncc(OC4CCS(=O)(=O)CC4)cc23)cc1OC [Example 105, (R,E)-2-cyano-N-(1-(3,4-dimethoxyphenyl)ethyl)-3-(5-((1,1-dioxidotetrahydro-2H-thiopyran-4-yl)oxy)-1H-pyrrolo[2,3-b]pyridin-3-yl)acrylamide] | ≤ 0.05 µM | 1 to 10 µM |
| COc1ccc([C@@H](C)NC(=O)/C(C#N)=C/c2c[nH]c3ncc(O[C@@H]4CCOC4)cc23)cc1OC [Example 107, (E)-2-cyano-N-((R)-1-(3,4-dimethoxyphenyl)ethyl)-3-(5-(((R)-tetrahydrofuran-3-yl)oxy)-1H-pyrrolo[2,3-b]pyridin-3-yl)acrylamide] | ≤ 0.05 µM | 0.5 to 1 µM |
| CNS(=O)(=O)c1ccccc1CNC(=O)/C(C#N)=C/c1c[nH]c2ncccc12 [Example 43, (E)-2-cyano-N-(2-(N-methylsulfamoyl)benzyl)-3-(1H-pyrrolo[2,3-b]pyridin-3-yl)acrylamide] | 0.1 to 0.5 µM | 1 to 10 µM |
| COc1ccc([C@@H](C)NC(=O)/C=C/c2c[nH]c3ncc(-c4cccc(S(C)(=N)=O)c4)cc23)cc1OC (stereo partly drawn) [Example 251, (E)-N-((R)-1-(3,4-dimethoxyphenyl)ethyl)-3-(5-(3-(S-methylsulfonimidoyl)phenyl)-1H-pyrrolo[2,3-b]pyridin-3-yl)acrylamide] | ≤ 0.05 µM | 0.5 to 1 µM |

| SMILES | IC50 (GRK5) | IC50 (GRK2) |
| --- | --- | --- |
| COc1ccc([C@@H](C)NC(=O)/C=C/c2c[nH]c3ncc(-c4cccc(CN(C)C)c4)cc23)cc1OC [Example 190] | ≤ 0.05 µM | 1 to 10 µM |
| COc1ccc([C@@H](C)NC(=O)C(C#N)=Cc2c[nH]c3ncc(-c4ccc(CCN(C)C)cc4)cc23)cc1OC (stereo in doubt) [Example 135] | ≤ 0.05 µM | 1 to 10 µM |
| N#C/C(=C\c1c[nH]c2ncccc12)C(=O)NCc1ccc(F)cc1F [Example 65, (E)-2-cyano-N-(2,4-difluorobenzyl)-3-(1H-pyrrolo[2,3-b]pyridin-3-yl)acrylamide] | 1 to 10 µM | 1 to 10 µM |
| COc1ccc(-c2cnc3[nH]cc(/C=C(/C#N)C(=O)N[C@H](C)c4ccc(OC)c(OC)c4)c3c2)cc1OC [Example 146] | 0.05 to 0.1 µM | > 10 µM |
| COc1cccc([C@@H](C)NC(=O)/C(C#N)=C/c2c[nH]c3ncccc23)c1 [Example 33, (R,E)-2-cyano-N-(1-(3-methoxyphenyl)ethyl)-3-(1H-pyrrolo[2,3-b]pyridin-3-yl)acrylamide] | ≤ 0.05 µM | ≤ 0.05 µM |
| N#C/C(=C\c1c[nH]c2ncccc12)C(=O)NCc1cccc(N2CCOCC2)c1 [Example 46, (E)-2-cyano-N-(3-morpholinobenzyl)-3-(1H-pyrrolo[2,3-b]pyridin-3-yl)acrylamide] | 1 to 10 µM | > 10 µM |
| Cc1noc2ccc([C@@H](C)NC(=O)/C=C/c3c[nH]c4ncc(-c5cnn(C)c5)cc34)cc12 [Example 260, (R,E)-3-(5-(1-methyl-1H-pyrazol-4-yl)-1H-pyrrolo[2,3-b]pyridin-3-yl)-N-(1-(3-methylbenzo[d]isoxazol-5-yl)ethyl)acrylamide] | ≤ 0.05 µM | 0.05 to 0.1 µM |
| CC[C@H](C)Oc1cnc2[nH]cc(/C=C(\C#N)C(=O)N[C@H](C)c3ccc(OC)c(OC)c3)c2c1 [Example 109, (E)-3-(5-((S)-sec-butoxy)-1H-pyrrolo[2,3-b]pyridin-3-yl)-2-cyano-N-((R)-1-(3,4-dimethoxyphenyl)ethyl)acrylamide] | ≤ 0.05 µM | > 10 µM |
| N#C/C(=C\c1c[nH]c2ncccc12)C(=O)NCc1cccc(C(F)(F)F)c1 [Example 61, (E)-2-cyano-3-(1H-pyrrolo[2,3-b]pyridin-3-yl)-N-(3-(trifluoromethyl)benzyl)acrylamide] | 0.5 to 1 µM | 1 to 10 µM |
| COc1ccc([C@@H](C)NC(=O)/C(C#N)=C/c2c[nH]c3ncccc23)cc1OC [Example 15, (R,E)-2-cyano-N-(1-(3,4-dimethoxyphenyl)ethyl)-3-(1H-pyrrolo[2,3-b]pyridin-3-yl)acrylamide] | 0.05 to 0.1 µM | 1 to 10 µM |
| COc1ccc([C@@H](C)NC(=O)/C=C/c2c[nH]c3ncc(-c4ccc(NS(C)(=O)=O)cc4)cc23)cc1OC [Example 187] | ≤ 0.05 µM | 1 to 10 µM |
| COc1ccc([C@@H](C)NC(=O)/C=C/c2c[nH]c3ncc(-c4cccc(C(N)=O)c4)cc23)cc1OC [Example 189] | ≤ 0.05 µM | 1 to 10 µM |
| O=C(/C=C/c1c[nH]c2nccc(Cl)c12)NCc1cccc(F)c1 [Example 8, (E)-3-(4-chloro-1H-pyrrolo[2,3-b]pyridin-3-yl)-N-(3-fluorobenzyl)acrylamide] | 1 to 10 µM | 0.5 to 1 µM |
| N#C/C(=C\c1c[nH]c2ncccc12)C(=O)NCc1ccccc1S(=O)(=O)N1CCOCC1 [Example 41, (E)-2-cyano-N-(2-(morpholinosulfonyl)benzyl)-3-(1H-pyrrolo[2,3-b]pyridin-3-yl)acrylamide] | 0.1 to 0.5 µM | 1 to 10 µM |
| C[C@@H](NC(=O)/C(C#N)=C/c1c[nH]c2ncc(-c3cnn(C)c3)cc12)c1ccccc1 [Example 91, (R,E)-2-cyano-3-(5-(1-methyl-1H-pyrazol-4-yl)-1H-pyrrolo[2,3-b]pyridin-3-yl)-N-(1-phenylethyl)acrylamide] | ≤ 0.05 µM | 0.1 to 0.5 µM |
